What was measured:
Puccinia triticina = assay: Wheat brown rust (PUCCRT) disease control on wheat seedlings; type: in vivo; design: key to PUCCRT 3DC, HV activity at 100 ppm (% control rating) / PUCCRT disease control, 3DC / PUCCRT 1DP disease control rating, HV activity / PUCCRT 3DC disease control rating, HV activity / PUCCRT 3DC, LV activity at 125.1 g/H (% Control rating) / PUCCRT 1DP, LV activity at 125.1 g/H (% Control rating) / PUCCRT 3DC disease control rating, LV activity at 125.1 g/H / PUCCRT 1DP disease control rating, LV activity at 125.1 g/H / PUCCRT 3DC disease control rating, HV activity at 100 ppm / PUCCRT 1DP disease control rating, HV activity at 100 ppm / HV activity at 100 ppm PUCCRT 3DC (disease control rating) / LV activity at 125.1 g/H PUCCRT 1DP (disease control rating) / LV activity at 125.1 g/H PUCCRT 3DC (disease control rating): A: > 80; B: ≤ 80; C: Not Tested; D: No Activity Observed in the Reported Assay; details: for PUCCRT 1DP disease control rating, HV activity / PUCCRT 3DC disease control rating, HV activity: HV application at 100 ppm; for PUCCRT 1DP, LV activity at 125.1 g/H (% Control rating) / PUCCRT 3DC, LV activity at 125.1 g/H (% Control rating): low volume application
Zymoseptoria tritici = assay: Leaf blotch of wheat (SEPTTR) disease control on wheat seedlings; type: in vivo; design: key to SEPTTR 1DP, HV activity at 100 ppm (% control rating) / SEPTTR 3DC, HV activity at 100 ppm (% control rating) / SEPTTR disease control, 1DP / SEPTTR disease control, 3DC / SEPTTR 1DP disease control rating, HV activity / SEPTTR 3DC disease control rating, HV activity / SEPTTR 3DC, LV activity at 125.1 g/H (% Control rating) / SEPTTR 1DP, LV activity at 125.1 g/H (% Control rating) / SEPTTR 1DP disease control rating, LV activity at 125.1 g/H / SEPTTR 3DC disease control rating, LV activity at 125.1 g/H / SEPTTR 3DC disease control rating, HV activity at 100 ppm / SEPTTR 1DP disease control rating, HV activity at 100 ppm / HV activity at 100 ppm SEPTTR 3DC (disease control rating) / HV activity at 100 ppm SEPTTR 1DP (disease control rating) / LV activity at 125.1 g/H SEPTTR 1DP (disease control rating) / LV activity at 125.1 g/H SEPTTR 3DC (disease control rating): A: > 80; B: ≤ 80; C: Not Tested; D: No Activity Observed in the Reported Assay; details: for SEPTTR 1DP disease control rating, HV activity / SEPTTR 3DC disease control rating, HV activity: HV application at 100 ppm; for SEPTTR 1DP, LV activity at 125.1 g/H (% Control rating) / SEPTTR 3DC, LV activity at 125.1 g/H (% Control rating): low volume application
[1] = 1 Day Protectant, wheat brown rust
[2] = 3 Day Curative, wheat brown rust
[3] = 1 Day Protectant, wheat leaf blotch
[4] = 3 Day Curative, wheat leaf blotch

Row | SMILES | PUCCRT 1DP, LV activity at 125.1 g/H (% Control rating) (Puccinia triticina; 1 Day Protectant) | PUCCRT 3DC, LV activity at 125.1 g/H (% Control rating) (Puccinia triticina; 3 Day Curative) | SEPTTR 1DP, LV activity at 125.1 g/H (% Control rating) (Zymoseptoria tritici; 1 Day Protectant) | SEPTTR 3DC, LV activity at 125.1 g/H (% Control rating) (Zymoseptoria tritici; 3 Day Curative) | other results
1 | CCCOC(CC)C(Oc1ccccc1)C(C)OC(=O)C(CC(C)C)NC(=O)c1nccc(OC)c1OC(C)=O (stereo not drawn) [Cmpd 452] | – | – | – | – | PUCCRT 1DP disease control rating, HV activity (Puccinia triticina; [1]): A (> 80); PUCCRT 3DC disease control rating, HV activity (Puccinia triticina; [2]): A (> 80); SEPTTR 1DP disease control rating, HV activity (Zymoseptoria tritici; [3]): B (≤ 80); SEPTTR 3DC disease control rating, HV activity (Zymoseptoria tritici; [4]): B (≤ 80)
2 | CCCOC(CC)C(Oc1ccccc1)C(C)OC(=O)C(NC(=O)c1nccc(OC)c1OC(C)=O)C(C)CC (stereo not drawn) [Cmpd 453] | – | – | – | – | PUCCRT 1DP disease control rating, HV activity (Puccinia triticina; [1]): A (> 80); PUCCRT 3DC disease control rating, HV activity (Puccinia triticina; [2]): A (> 80); SEPTTR 1DP disease control rating, HV activity (Zymoseptoria tritici; [3]): B (≤ 80); SEPTTR 3DC disease control rating, HV activity (Zymoseptoria tritici; [4]): B (≤ 80)
3 | CCC(Cc1ccccc1)C(OCC(C)C)C(C)OC(=O)C(C)NC(=O)c1nccc(OC)c1OCOC(C)=O (stereo not drawn) [Cmpd 454] | – | – | – | – | PUCCRT 1DP disease control rating, HV activity (Puccinia triticina; [1]): A (> 80); PUCCRT 3DC disease control rating, HV activity (Puccinia triticina; [2]): A (> 80); SEPTTR 1DP disease control rating, HV activity (Zymoseptoria tritici; [3]): A (> 80); SEPTTR 3DC disease control rating, HV activity (Zymoseptoria tritici; [4]): A (> 80)
4 | C=CC(OCCC)C(Oc1ccccc1)C(C)OC(=O)C(C)NC(=O)c1nccc(OC)c1OC(C)=O (stereo not drawn) [Cmpd 456] | – | – | – | – | PUCCRT 1DP disease control rating, HV activity (Puccinia triticina; [1]): A (> 80); PUCCRT 3DC disease control rating, HV activity (Puccinia triticina; [2]): A (> 80); PUCCRT 1DP disease control rating, LV activity (Puccinia triticina; Low volume application at 125.1 g/H, 1 Day Protectant, wheat brown rust): A (> 80); PUCCRT 3DC disease control rating, LV activity (Puccinia triticina; Low volume application at 125.1 g/H, 3 Day Curative, wheat brown rust): A (> 80); SEPTTR 1DP disease control rating, HV activity (Zymoseptoria tritici; [3]): A (> 80); SEPTTR 3DC disease control rating, HV activity (Zymoseptoria tritici; [4]): A (> 80); SEPTTR 1DP disease control rating, LV activity (Zymoseptoria tritici; Low volume application at 125.1 g/H, 1 Day Protectant, wheat leaf blotch): A (> 80); SEPTTR 3DC disease control rating, LV activity (Zymoseptoria tritici; Low volume application at 125.1 g/H, 3 Day Curative, wheat leaf blotch): A (> 80)
5 | CC[C@H](Cc1ccc(F)cc1)[C@@H](Oc1ccccc1)[C@H](C)OC(=O)[C@H](C)NC(=O)c1nccc(OC)c1OC(C)=O [Cmpd 469] | A (> 80) | A (> 80) | A (> 80) | A (> 80) | –
6 | CC[C@H](Cc1ccc(OC)cc1)[C@@H](Oc1ccccc1)[C@H](C)OC(=O)[C@H](C)NC(=O)c1nccc(OC)c1OCOC(C)=O [Cmpd 470] | A (> 80) | A (> 80) | A (> 80) | A (> 80) | –
7 | CC[C@H](Cc1ccc(F)cc1)[C@@H](Oc1ccccc1)[C@H](C)OC(=O)[C@H](C)NC(=O)c1nccc(OC)c1OCOC(C)=O [Cmpd 471] | A (> 80) | A (> 80) | A (> 80) | A (> 80) | –
8 | CC[C@H](Cc1ccc(OC)cc1)[C@@H](Oc1ccccc1)[C@H](C)OC(=O)[C@H](C)NC(=O)c1nccc(OC)c1OC(=O)C(C)C [Cmpd 472] | A (> 80) | B (≤ 80) | A (> 80) | A (> 80) | –
9 | CC[C@H](Cc1ccc(F)cc1)[C@@H](Oc1ccccc1)[C@H](C)OC(=O)[C@H](C)NC(=O)c1nccc(OC)c1OC(=O)C(C)C [Cmpd 473] | A (> 80) | D | B (≤ 80) | B (≤ 80) | –
10 | CCC(CCOC)C(Oc1ccccc1)C(C)OC(=O)C(C)NC(=O)c1nccc(OC)c1OC(C)=O (stereo not drawn) [Cmpd 481] | A (> 80) | A (> 80) | B (≤ 80) | A (> 80) | –
11 | CCCOC[C@@H](Oc1ccccc1)[C@H](C)OC(=O)[C@H](CC)NC(=O)c1nccc(OC)c1OC(C)=O [Cmpd 484] | B (≤ 80) | A (> 80) | B (≤ 80) | D | –
12 | COc1ccnc(C(=O)N[C@@H](C)C(=O)O[C@@H](C)[C@@H](COc2ccccc2)Oc2ccccc2)c1OC(C)=O [Cmpd 488] | A (> 80) | A (> 80) | A (> 80) | B (≤ 80) | –
13 | CC[C@H](NC(=O)c1nccc(OC)c1OC(C)=O)C(=O)O[C@@H](C)[C@@H](COc1ccccc1)Oc1ccccc1 [Cmpd 489] | A (> 80) | A (> 80) | A (> 80) | A (> 80) | –
14 | COCC[C@H](Cc1ccc(F)cc1)[C@@H](OC(=O)C(C)C)[C@H](C)OC(=O)[C@H](C)NC(=O)c1nccc(OC)c1OCOC(C)=O [Cmpd 499] | A (> 80) | A (> 80) | D | B (≤ 80) | –
15 | CC[C@@H](CCC(C)C)[C@H](OCC1CC1)[C@H](C)OC(=O)[C@H](C)NC(=O)c1nccc(OC)c1OCOC(C)=O [Cmpd 503] | A (> 80) | A (> 80) | B (≤ 80) | A (> 80) | –
16 | CC[C@@H](CCC(C)C)[C@H](OCC1CC1)[C@H](C)OC(=O)[C@H](C)NC(=O)c1nccc(OC)c1OC(C)=O [Cmpd 504] | A (> 80) | A (> 80) | B (≤ 80) | B (≤ 80) | –
17 | CCCO[C@@H](C1CC1)[C@@H](Oc1ccccc1)[C@H](C)OC(=O)[C@H](C)NC(=O)c1nccc(OC)c1OCOC(C)=O [Cmpd 505] | A (> 80) | A (> 80) | B (≤ 80) | B (≤ 80) | –
18 | CC[C@H](CCC(C)C)[C@@H](OCC1CC1)[C@H](C)OC(=O)[C@H](C)NC(=O)c1nccc(OC)c1OCOC(C)=O [Cmpd 506] | A (> 80) | B (≤ 80) | B (≤ 80) | B (≤ 80) | –
19 | CC[C@H](CCC(C)C)[C@@H](OCC1CC1)[C@H](C)OC(=O)[C@H](C)NC(=O)c1nccc(OC)c1OC(C)=O [Cmpd 507] | B (≤ 80) | B (≤ 80) | B (≤ 80) | B (≤ 80) | –
20 | CC[C@H](CC1CCCC1)[C@@H](OCC1CC1)[C@H](C)OC(=O)[C@H](C)NC(=O)c1nccc(OC)c1OC(C)=O [Cmpd 508] | B (≤ 80) | B (≤ 80) | B (≤ 80) | B (≤ 80) | –
21 | CC[C@H](CC1CCCC1)[C@@H](OCC1CC1)[C@H](C)OC(=O)[C@H](C)NC(=O)c1nccc(OC)c1OCOC(C)=O [Cmpd 509] | B (≤ 80) | B (≤ 80) | B (≤ 80) | D | –
22 | CCCO[C@@H]([C@H](C)OC(=O)[C@H](C)NC(=O)c1nccc(OC)c1OCOC(C)=O)[C@H](CC)Oc1ccccc1 [Cmpd 510] | A (> 80) | A (> 80) | A (> 80) | B (≤ 80) | –
23 | CCCO[C@@H]([C@H](C)OC(=O)[C@H](C)NC(=O)c1nccc(OC)c1OC(C)=O)[C@H](CC)Oc1ccccc1 [Cmpd 511] | A (> 80) | A (> 80) | B (≤ 80) | A (> 80) | –
